Test results taken from US8575364B2, “Modulators of serotonin receptor” (Janssen Pharmaceutica NV, priority 2008, dated 2013).
Where a name gives a salt, the structure may show the parent alone.

Target: rat 5-HT7 receptors (Rattus norvegicus (Rat), UniProt P32305)
Assay: r5-HT7 competitive radioligand binding assay ([3H]5-CT)
Conditions: membrane fractions of HEK-293 cells recombinantly expressing rat 5-HT7
Experimental: Compound affinity for the rat 5-HT7 receptor subtype was evaluated by competitive radioligand binding assays using 5-carboxamido[^3H]tryptamine ([^3H]5-CT) (Amersham Biosciences, cat. 90000403) detection. HitHunter™ cAMP assays are in-vitro based competitive immunoassays. […] Cells were pre-incubated with test compounds for 10 minutes. For agonistic testing, the concentration of test compound that produced a half-maximal response is represented by the EC50 value. Compounds were assayed in their free form or as salts, as indicated in the Examples section above.

rat 5-HT7 receptors, sequence (P32305 1-435): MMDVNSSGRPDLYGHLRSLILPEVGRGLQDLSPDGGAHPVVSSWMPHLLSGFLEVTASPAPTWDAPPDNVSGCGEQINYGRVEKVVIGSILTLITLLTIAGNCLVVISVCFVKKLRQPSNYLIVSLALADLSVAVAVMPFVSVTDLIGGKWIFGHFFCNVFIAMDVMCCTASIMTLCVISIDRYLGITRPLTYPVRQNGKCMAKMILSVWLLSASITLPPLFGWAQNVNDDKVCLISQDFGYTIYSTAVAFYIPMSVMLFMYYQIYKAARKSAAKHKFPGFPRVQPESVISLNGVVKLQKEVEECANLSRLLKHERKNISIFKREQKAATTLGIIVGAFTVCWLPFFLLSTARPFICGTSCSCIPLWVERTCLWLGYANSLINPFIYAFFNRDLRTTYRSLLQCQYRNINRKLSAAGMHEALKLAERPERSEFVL

With `COc1ccc(-c2ccccc2C)cc1C1CCNC1` (racemic) [Example 43, (±)-3-(4-Methoxy-2′-methyl-biphenyl-3-yl)-pyrrolidine] as the compound, how does the Ki read?
The Ki was 5.46 nM.

For `COc1ccc(-c2cccc(F)c2C)cc1C1CCNC1` (racemic) [Example 44, (±)-3-(3′-Fluoro-4-methoxy-2′-methyl-biphenyl-3-yl)-pyrrolidine], which Ki is on record?
Its Ki is 19 nM.

How did the Ki turn out when `COc1ccc(-c2cccc(F)c2F)cc1C1CCNC1` (racemic) [Example 45, (±)-3-(2′,3′-Difluoro-4-methoxy-biphenyl-3-yl)-pyrrolidine] was run?
Its Ki is 52 nM.

How did the Ki turn out when `COc1ccc(-c2cccc(C(F)(F)F)c2)cc1C1CCNC1` (racemic) [Example 46, (±)-3-(4-Methoxy-3′-trifluoromethyl-biphenyl-3-yl)-pyrrolidine] was run?
The Ki was 117 nM.

Which Ki does the source give for `COc1ccc(-c2ccccc2C(F)(F)F)cc1C1CCNC1` (racemic) [Example 47, (±)-3-(4-Methoxy-2′-trifluoromethyl-biphenyl-3-yl)-pyrrolidine] here?
The Ki was 7.98 nM.

With `COc1ccc(-c2ccccc2OC(F)(F)F)cc1C1CCNC1` (racemic) [Example 48, (±)-3-(4-Methoxy-2′-trifluoromethoxy-biphenyl-3-yl)-pyrrolidine] as the compound, how does the Ki read?
Its Ki is 19.8 nM.

With `COc1ccc(-c2ccccc2)cc1C1CCNC1` (racemic) [Example 49, (±)-3-(4-Methoxy-biphenyl-3-yl)-pyrrolidine] as the compound, how does the Ki read?
The Ki was 130 nM.

How did the Ki turn out when `COc1ccc(-c2ccccc2)cc1C1CCN(C)C1` (racemic) [Example 50, (±)-3-(4-Methoxy-biphenyl-3-yl)-1-methyl-pyrrolidine] was run?
The Ki was 150 nM.

How did the Ki turn out when `c1ccc(-c2ccccc2C2CCNC2)cc1` (racemic) [Example 51, (±)-3-Biphenyl-2-yl-pyrrolidine] was run?
The Ki was 120 nM.

How did the Ki turn out when `Cc1cccc(-c2ccccc2C2CCNC2)c1` (racemic) [Example 52, (±)-3-(3′-Methyl-biphenyl-2-yl)-pyrrolidine] was run?
Its Ki is 80.2 nM.

Which Ki does the source give for `Cc1ccc(-c2ccccc2C2CCNC2)cc1` (racemic) [Example 54, (±)-3-(4′-Methyl-biphenyl-2-yl)-pyrrolidine] here?
Its Ki is 120 nM.

`Cc1ccc(-c2ccccc2C2CCN(C)C2)cc1` (racemic) [Example 55, (±)-1-Methyl-3-(4′-methyl-biphenyl-2-yl)-pyrrolidine] was tested. Which Ki did it give?
The Ki was 430 nM.

Which Ki does the source give for `Cc1ccc(-c2ccccc2C2CCNC2)cc1C` (racemic) [Example 57, (±)-3-(3′,4′-Dimethyl-biphenyl-2-yl)-pyrrolidine] here?
Its Ki is 55.9 nM.

`Cc1ccccc1-c1ccccc1C1CCNC1` (racemic) [Example 59, (±)-3-(2′-Methyl-biphenyl-2-yl)-pyrrolidine] was tested. Which Ki did it give?
Its Ki is 210 nM.

Which Ki does the source give for `Cc1ccccc1-c1ccccc1C1CCN(C)C1` (racemic) [Example 60, (±)-1-Methyl-3-(2′-methyl-biphenyl-2-yl)-pyrrolidine] here?
The Ki was 330 nM.

With `COc1ccccc1-c1ccccc1C1CCNC1` (racemic) [Example 61, (±)-3-(2′-Methoxy-biphenyl-2-yl)-pyrrolidine] as the compound, how does the Ki read?
Its Ki is 300 nM.

With `COc1ccccc1-c1ccccc1C1CCN(C)C1` (racemic) [Example 62, (±)-3-(2′-Methoxy-biphenyl-2-yl)-1-methyl-pyrrolidine] as the compound, how does the Ki read?
The Ki was 730 nM.

`COc1ccc(C)cc1-c1ccccc1C1CCNC1` (racemic) [Example 63, (±)-3-(2′-Methoxy-5′-methyl-biphenyl-2-yl)-pyrrolidine] was tested. Which Ki did it give?
Its Ki is 1700 nM.

With `Clc1cccc(-c2ccc(Cl)cc2C2CCNC2)c1` (racemic) [Example 65, (±)-3-(4,3′-Dichloro-biphenyl-2-yl)-pyrrolidine] as the compound, how does the Ki read?
Its Ki is 130 nM.

With `Cc1cc(-c2ccc(Cl)cc2C2CCNC2)ccc1F` (racemic) [Example 66, (±)-3-(4-Chloro-4′-fluoro-3′-methyl-biphenyl-2-yl)-pyrrolidine] as the compound, how does the Ki read?
The Ki was 380 nM.

Which Ki does the source give for `Cc1ccc(-c2ccc(Cl)cc2C2CCNC2)cc1C` (racemic) [Example 67, (±)-3-(4-Chloro-3′,4′-dimethyl-biphenyl-2-yl)-pyrrolidine] here?
The Ki was 120 nM.

How did the Ki turn out when `COc1ccc(-c2ccc(F)cc2C)cc1OC1CNC1` [Example 2, 3-(4′-Fluoro-4-methoxy-2′-methyl-biphenyl-3-yloxy)-azetidine] was run?
Its Ki is 21 nM.

`COc1ccc(-c2ccccc2C#N)cc1OC1CNC1` [Example 3, 3′-(Azetidin-3-yloxy)-4′-methoxy-biphenyl-2-carbonitrile trifluoroacetate] was tested. Which Ki did it give?
Its Ki is 33.9 nM.

Which Ki does the source give for `COc1ccc(-c2c(C)cccc2C)cc1OC1CNC1` [Example 6, 3-(4-Methoxy-2′,6′-dimethyl-biphenyl-3-yloxy)-azetidine trifluoroacetate] here?
Its Ki is 8.2 nM.

For `COc1ccc(-c2ccccc2OC(F)(F)F)cc1OC1CNC1` [Example 7, 3-(4-Methoxy-2′-trifluoromethoxy-biphenyl-3-yloxy)-azetidine], which Ki is on record?
The Ki was 10 nM.

`COc1ccc(-c2ccccc2OC)cc1OC1CNC1` [Example 9, 3-(4,2′-Dimethoxy-biphenyl-3-yloxy)-azetidine] was tested. Which Ki did it give?
The Ki was 50 nM.

Which Ki does the source give for `COc1ccc(-c2c(Cl)cccc2C(F)(F)F)cc1OC1CNC1` [Example 10, 3-(2′-Chloro-4-methoxy-6′-trifluoromethyl-biphenyl-3-yloxy)-azetidine trifluoroacetate] here?
Its Ki is 112 nM.

`COc1ccc(-c2ccc(C)cc2)cc1OC1CNC1` [Example 11, 3-(4-Methoxy-4′-methyl-biphenyl-3-yloxy)-azetidine] was tested. Which Ki did it give?
The Ki was 760 nM.

`COc1ccc(-c2ccc(F)c(C)c2)cc1OC1CNC1` [Example 12, 3-(4′-Fluoro-4-methoxy-3′-methyl-biphenyl-3-yloxy)-azetidine] was tested. Which Ki did it give?
The Ki was 770 nM.

`COc1ccc(-c2cccc(C)c2)cc1OC1CNC1` [Example 13, 3-(4-Methoxy-3′-methyl-biphenyl-3-yloxy)-azetidine] was tested. Which Ki did it give?
The Ki was 1000 nM.

Which Ki does the source give for `COc1ccc(-c2ccc(C)c(C)c2)cc1OC1CNC1` [Example 14, 3-(4-Methoxy-3′,4′-dimethyl-biphenyl-3-yloxy)-azetidine] here?
The Ki was 250 nM.

For `COc1ccc(-c2ccccc2)cc1OC1CNC1` [Example 15, 3-(4-Methoxy-biphenyl-3-yloxy)-azetidine], which Ki is on record?
Its Ki is 120 nM.

For `COc1ccc(-c2cc(C)ccc2C)cc1OC1CNC1` [Example 16, 3-(4-Methoxy-2′,5′-dimethyl-biphenyl-3-yloxy)-azetidine], which Ki is on record?
Its Ki is 114 nM.

How did the Ki turn out when `COc1ccc(-c2ccccc2Cl)cc1OC1CN(C(C)C)C1` [Example 18, 3-(2′-Chloro-4-methoxy-biphenyl-3-yloxy)-1-isopropyl-azetidine trifluoroacetate] was run?
Its Ki is 533 nM.

`COc1ccc(-c2ccccc2Cl)cc1OC1CN(C2CCC2)C1` [Example 19, 3-(2′-Chloro-4-methoxy-biphenyl-3-yloxy)-1-cyclobutyl-azetidine trifluoroacetate] was tested. Which Ki did it give?
Its Ki is 300 nM.

`FC(F)(F)c1ccccc1-c1cccc(OC2CNC2)c1` [Example 20, 3-(2′-Trifluoromethyl-biphenyl-3-yloxy)-azetidine] was tested. Which Ki did it give?
Its Ki is 25.5 nM.

`Clc1ccccc1-c1cccc(OC2CNC2)c1` [Example 21, 3-(2′-Chloro-biphenyl-3-yloxy)-azetidine] was tested. Which Ki did it give?
Its Ki is 34.6 nM.

Which Ki does the source give for `Cc1cccc(-c2cccc(OC3CNC3)c2)c1` [Example 22, 3-(3′-Methyl-biphenyl-3-yloxy)-azetidine] here?
The Ki was 752 nM.

How did the Ki turn out when `Cc1ccccc1-c1cccc(OC2CNC2)c1` [Example 23, 3-(2′-Methyl-biphenyl-3-yloxy)-azetidine] was run?
The Ki was 67 nM.

With `Clc1ccc(-c2ccccc2Cl)cc1OC1CNC1` [Example 24, 3-(4,2′-Dichloro-biphenyl-3-yloxy)-azetidine trifluoroacetate] as the compound, how does the Ki read?
The Ki was 8.89 nM.

Which Ki does the source give for `FC(F)(F)c1ccccc1-c1ccc(Cl)c(OC2CNC2)c1` [Example 25, 3-(4-Chloro-2′-trifluoromethyl-biphenyl-3-yloxy)-azetidine trifluoroacetate] here?
The Ki was 10.5 nM.

How did the Ki turn out when `Cc1ccccc1-c1ccc(Cl)c(OC2CNC2)c1` [Example 26, 3-(4-Chloro-2′-methyl-biphenyl-3-yloxy)-azetidine trifluoroacetate] was run?
The Ki was 15.5 nM.

Which Ki does the source give for `Cc1cccc(-c2ccc(Cl)c(OC3CNC3)c2)c1` [Example 27, 3-(4-Chloro-3′-methyl-biphenyl-3-yloxy)-azetidine trifluoroacetate] here?
The Ki was 410 nM.

Which Ki does the source give for `N#Cc1ccc(-c2ccccc2C(F)(F)F)cc1OC1CNC1` [Example 28, 3-(Azetidin-3-yloxy)-2′-trifluoromethyl-biphenyl-4-carbonitrile] here?
Its Ki is 127 nM.

`N#Cc1ccc(-c2ccccc2)cc1OC1CNC1` [Example 29, 3-(Azetidin-3-yloxy)-biphenyl-4-carbonitrile] was tested. Which Ki did it give?
The Ki was 10000 nM.

`Cc1ccccc1-c1ccc(C#N)c(OC2CNC2)c1` [Example 30, 3-(Azetidin-3-yloxy)-2′-methyl-biphenyl-4-carbonitrile] was tested. Which Ki did it give?
Its Ki is 508 nM.

With `CCOc1ccc(-c2ccccc2C)cc1OC1CNC1` [Example 32, 3-(4-Ethoxy-2′-methyl-biphenyl-3-yloxy)-azetidine hydrochloride] as the compound, how does the Ki read?
The Ki was 454 nM.

For `Cc1ccccc1-c1ccc(OCC(F)(F)F)c(OC2CNC2)c1` [Example 33, 3-[2′-Methyl-4-(2,2,2-trifluoro-ethoxy)-biphenyl-3-yloxy]-azetidine], which Ki is on record?
Its Ki is 525 nM.

How did the Ki turn out when `Cc1ccccc1-c1ccc(OC2CCC2)c(OC2CNC2)c1` [Example 34, 3-(4-Cyclobutoxy-2′-methyl-biphenyl-3-yloxy)-azetidine] was run?
The Ki was 667 nM.

How did the Ki turn out when `Cc1ccccc1-c1ccc(OCC2CC2)c(OC2CNC2)c1` [Example 35, 3-(4-Cyclopropylmethoxy-2′-methyl-biphenyl-3-yloxy)-azetidine] was run?
The Ki was 755 nM.

With `Cc1ccccc1-c1ccc(OC(C)C)c(OC2CNC2)c1` [Example 36, 3-(4-Isopropoxy-2′-methyl-biphenyl-3-yloxy)-azetidine] as the compound, how does the Ki read?
Its Ki is 10000 nM.

`CCN(CC)C(=O)c1ccc(-c2ccccc2C(F)(F)F)cc1OC1CNC1` [Example 37, 3-(Azetidin-3-yloxy)-2′-trifluoromethyl-biphenyl-4-carboxylic acid diethylamide] was tested. Which Ki did it give?
The Ki was 2270 nM.

For `Cc1cccc(-c2ccc(Cl)cc2OC2CNC2)c1` [Example 38, 3-(4-Chloro-3′-methyl-biphenyl-2-yloxy)-azetidine], which Ki is on record?
The Ki was 189 nM.
